Laboratory results: patent US20250059185A1 (Hoffmann-La Roche Inc., priority 2021, published 2025)

Target: MAGL (Homo sapiens (Human), UniProt Q99685)
Assay: 2-AG assay (MAGL inhibitory activity, hydrolysis of 2-arachidonoylglycerol followed by mass spectrometry)
Format: biochemical
Conditions: 50 pM MAGL protein, 15 min pre-incubation, 30 min incubation at RT
Summary of the method: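 Human MAGL (50 pM final) preincubated 15 min at RT with compound (3-fold dilutions, 12.5 μM to 0.8 pM final) in 50 mM TRIS, 1 mM EDTA, 0.01% Tween-20, 2.5% DMSO. Reaction with […] 2-AG ran 30 min at RT, then was quenched with acetonitrile containing d8-arachidonic acid. Arachidonic acid measured by SPE–triple-quad MS (negative ESI), activity from the arachidonic/d8-arachidonic acid intensity ratio.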

Chain of MAGL (Q99685 whole entry, species assumed): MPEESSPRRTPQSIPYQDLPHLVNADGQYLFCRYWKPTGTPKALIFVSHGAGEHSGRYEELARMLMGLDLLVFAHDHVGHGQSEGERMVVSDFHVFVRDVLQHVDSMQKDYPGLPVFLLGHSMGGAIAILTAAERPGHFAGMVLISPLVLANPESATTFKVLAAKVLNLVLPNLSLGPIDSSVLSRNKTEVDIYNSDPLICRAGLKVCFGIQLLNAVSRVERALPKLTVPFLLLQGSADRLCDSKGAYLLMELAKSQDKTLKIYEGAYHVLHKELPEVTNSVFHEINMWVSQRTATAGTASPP

Row | Compound | IC50 [nM]
1 | C[C@@H]1c2nn(C)c(-c3cncc(C(F)(F)F)n3)c2CCN1C(=O)c1cc(F)cc(N2CC3(C2)CS(=O)(=O)C3)c1Cl [Example 66, [2-chloro-3-(2,2-dioxo-2λ^6-thia-6-azaspiro[3.3]heptan-6-yl)-5-fluoro-phenyl]-[(7R)-2,7-dimethyl-3-[6-(trifluoromethyl)pyrazin-2-yl]-5,7-dihydro-4H-pyrazolo[3,4-c]pyridin-6-yl]methanone] | 3240
2 | C[C@H]1c2nn(C)c(-c3cncc(C(F)(F)F)n3)c2CCN1C(=O)c1ncn(-c2ccc[nH]c2=O)n1 [Example 67, 3-[3-[(7S)-2,7-dimethyl-3-[6-(trifluoromethyl)pyrazin-2-yl]-5,7-dihydro-4H-pyrazolo[3,4-c]pyridine-6-carbonyl]-1,2,4-triazol-1-yl]-1H-pyridin-2-one] | 4220
3 | C[C@H]1c2nn(C)c(-c3cncc(C(F)(F)F)n3)c2CCN1C(=O)c1cc(F)cc(-c2ccc(=O)[nH]c2)c1Cl [Example 68, 5-[2-chloro-3-[(7S)-2,7-dimethyl-3-[6-(trifluoromethyl)pyrazin-2-yl]-5,7-dihydro-4H-pyrazolo[3,4-c]pyridine-6-carbonyl]-5-fluoro-phenyl]-1H-pyridin-2-one] | 4290
4 | C[C@H]1c2nn(C)c(-c3cc(Cl)cc(C4(C(N)=O)CC4)c3)c2CCN1C(=O)c1cc(F)cc(-c2c[nH]c(C#N)c2)c1Cl [Example 71, 1-[3-chloro-5-[(7S)-6-[2-chloro-3-(5-cyano-1H-pyrrol-3-yl)-5-fluoro-benzoyl]-2,7-dimethyl-5,7-dihydro-4H-pyrazolo[3,4-c]pyridin-3-yl]phenyl]cyclopropanecarboxamide] | 2160
5 | C[C@@H]1c2nn(C)c(-c3cc(Cl)cc(C4(S(C)(=O)=O)CC4)c3)c2CCN1C(=O)c1cc(F)cc(-c2ccc(=O)[nH]c2)c1Cl [Example 74, 5-[2-chloro-3-[(7R)-3-[3-chloro-5-(1-methylsulfonylcyclopropyl)phenyl]-2,7-dimethyl-5,7-dihydro-4H-pyrazolo[3,4-c]pyridine-6-carbonyl]-5-fluoro-phenyl]-1H-pyridin-2-one] | 293
6 | C[C@H]1c2nn(C)c(-c3cc(Cl)cc(C4(C(N)=O)CC4)c3)c2CCN1C(=O)c1cc(F)cc(N2CC3(C2)CS(=O)(=O)C3)c1Cl [Example 75, 1-[3-chloro-5-[(7S)-6-[2-chloro-3-(2,2-dioxo-2λ^6-thia-6-azaspiro[3.3]heptan-6-yl)-5-fluoro-benzoyl]-2,7-dimethyl-5,7-dihydro-4H-pyrazolo[3,4-c]pyridin-3-yl]phenyl]cyclopropanecarboxamide] | 1240
7 | C[C@@H]1c2nn(C)c(-c3cc(Cl)cc(C4(C(N)=O)CC4)c3)c2CCN1C(=O)c1cc(F)cc(N2CC3(C2)CS(=O)(=O)C3)c1Cl [Example 76, 1-[3-chloro-5-[(7R)-6-[2-chloro-3-(2,2-dioxo-2λ^6-thia-6-azaspiro[3.3]heptan-6-yl)-5-fluoro-benzoyl]-2,7-dimethyl-5,7-dihydro-4H-pyrazolo[3,4-c]pyridin-3-yl]phenyl]cyclopropanecarboxamide] | 1420
8 | C[C@H]1c2nn(C)c(-c3cc(F)cc(F)c3)c2CCN1C(=O)c1ncn(-c2ccc[nH]c2=O)c1Cl [Example 77, 3-[5-chloro-4-[(7S)-3-(3,5-difluorophenyl)-2,7-dimethyl-5,7-dihydro-4H-pyrazolo[3,4-c]pyridine-6-carbonyl]imidazol-1-yl]-1H-pyridin-2-one] | 1460
9 | C[C@H]1c2nn(C)c(-c3cc(Cl)cc(C4(S(C)(=O)=O)CC4)c3)c2CCN1C(=O)c1ncn(-c2ccc[nH]c2=O)n1 [Example 78, 3-[3-[(7S)-3-[3-chloro-5-(1-methylsulfonylcyclopropyl)phenyl]-2,7-dimethyl-5,7-dihydro-4H-pyrazolo[3,4-c]pyridine-6-carbonyl]-1,2,4-triazol-1-yl]-1H-pyridin-2-one] | 275
10 | COCCOc1cc(Cl)cc(-c2c3c(nn2C)[C@@H](C)N(C(=O)c2cccc(OC)c2Cl)CC3)c1 [Example 79, [(7R)-3-[3-chloro-5-(2-methoxyethoxy)phenyl]-2,7-dimethyl-5,7-dihydro-4H-pyrazolo[3,4-c]pyridin-6-yl]-(2-chloro-3-methoxy-phenyl)methanone] | 1240
11 | C[C@@H]1c2nn(C)c(-c3cc(Cl)cc(C4(NS(C)(=O)=O)CC4)c3)c2CCN1C(=O)c1cc(F)cc(-c2c[nH]c(C#N)c2)c1Cl [Example 86, N-[1-[3-chloro-5-[(7R)-6-[2-chloro-3-(5-cyano-1H-pyrrol-3-yl)-5-fluoro-benzoyl]-2,7-dimethyl-5,7-dihydro-4H-pyrazolo[3,4-c]pyridin-3-yl]phenyl]cyclopropyl]methanesulfonamide] | 1010
12 | C[C@H]1c2nn(C)c(-c3cc(Cl)cc(C4(NS(C)(=O)=O)CC4)c3)c2CCN1C(=O)c1ncn(-c2cc(Cl)cnc2O)n1 [Example 91, N-[1-[3-chloro-5-[(7S)-6-[1-(5-chloro-2-hydroxy-3-pyridyl)-1,2,4-triazole-3-carbonyl]-2,7-dimethyl-5,7-dihydro-4H-pyrazolo[3,4-c]pyridin-3-yl]phenyl]cyclopropyl]methanesulfonamide] | 1730

Stronger by IC50, values ahead:

Row | IC50 [nM] | Compound
13 | 3 | COCCOc1cc(Cl)cc(-c2c3c(nn2C)[C@H](C)N(C(=O)c2cccc(OC)c2Cl)CC3)c1 [Example 69, [(7S)-3-[3-chloro-5-(2-methoxyethoxy)phenyl]-2,7-dimethyl-5,7-dihydro-4H-pyrazolo[3,4-c]pyridin-6-yl]-(2-chloro-3-methoxy-phenyl)methanone]
14 | 42 | CC1c2nn(C)c(-c3cc(Cl)cc(C4(C(N)=O)CC4)c3)c2CCN1C(=O)c1cc(F)cc(OCC2CNC(=O)C2)c1Cl (stereo not drawn) [Example 70, 1-[3-chloro-5-[6-[2-chloro-5-fluoro-3-[(5-oxopyrrolidin-3-yl)methoxy]benzoyl]-2,7-dimethyl-5,7-dihydro-4H-pyrazolo[3,4-c]pyridin-3-yl]phenyl]cyclopropanecarboxamide]
15 | 62 | C[C@@H]1c2nn(C)c(-c3cc(Cl)cc(C4(C(N)=O)CC4)c3)c2CCN1C(=O)c1cc(F)cc(-c2c[nH]c(C#N)c2)c1Cl [Example 72, 1-[3-chloro-5-[(7R)-6-[2-chloro-3-(5-cyano-1H-pyrrol-3-yl)-5-fluoro-benzoyl]-2,7-dimethyl-5,7-dihydro-4H-pyrazolo[3,4-c]pyridin-3-yl]phenyl]cyclopropanecarboxamide]
16 | 145 | C[C@H]1c2nn(C)c(-c3cc(Cl)cc(C4(S(C)(=O)=O)CC4)c3)c2CCN1C(=O)c1cc(F)cc(-c2ccc(=O)[nH]c2)c1Cl [Example 73, 5-[2-chloro-3-[(7S)-3-[3-chloro-5-(1-methylsulfonylcyclopropyl)phenyl]-2,7-dimethyl-5,7-dihydro-4H-pyrazolo[3,4-c]pyridine-6-carbonyl]-5-fluoro-phenyl]-1H-pyridin-2-one]
17 | 240 | COc1cccc(C(=O)N2CCc3c(nn(C)c3-c3cc(CNS(C)(=O)=O)cc(Cl)n3)C2C)c1Cl (stereo not drawn) [Example 80, N-[[2-chloro-6-[6-(2-chloro-3-methoxy-benzoyl)-2,7-dimethyl-5,7-dihydro-4H-pyrazolo[3,4-c]pyridin-3-yl]-4-pyridyl]methyl]methanesulfonamide]
18 | 21 | COc1cccc(C(=O)N2CCc3c(nn(C)c3-c3ccnc(C(F)(F)F)n3)[C@@H]2C)c1Cl [Example 81, (2-chloro-3-methoxy-phenyl)-[(7S)-2,7-dimethyl-3-[2-(trifluoromethyl)pyrimidin-4-yl]-5,7-dihydro-4H-pyrazolo[3,4-c]pyridin-6-yl]methanone]
19 | 6.18 | CC1c2nn(C)c(-c3cc(Cl)cc(C4(NS(C)(=O)=O)CC4)c3)c2CCN1C(=O)c1cc(F)cc(-c2c[nH]c(C#N)c2)c1Cl (stereo not drawn) [Example 84, N-[1-[3-chloro-5-[6-[2-chloro-3-(5-cyano-1H-pyrrol-3-yl)-5-fluoro-benzoyl]-2,7-dimethyl-5,7-dihydro-4H-pyrazolo[3,4-c]pyridin-3-yl]phenyl]cyclopropyl]methanesulfonamide]
20 | 13.8 | C[C@H]1c2nn(C)c(-c3cc(Cl)cc(C4(NS(C)(=O)=O)CC4)c3)c2CCN1C(=O)c1cc(F)cc(-c2c[nH]c(C#N)c2)c1Cl [Example 85, N-[1-[3-chloro-5-[(7S)-6-[2-chloro-3-(5-cyano-1H-pyrrol-3-yl)-5-fluoro-benzoyl]-2,7-dimethyl-5,7-dihydro-4H-pyrazolo[3,4-c]pyridin-3-yl]phenyl]cyclopropyl]methanesulfonamide]
21 | 8.15 | CC1c2nn(C)c(-c3cc(Cl)cc(C4(NS(C)(=O)=O)CC4)c3)c2CCN1C(=O)c1cc(F)cc(CCc2c[nH]nn2)c1Cl (stereo not drawn) [Example 87, N-[1-[3-chloro-5-[6-[2-chloro-5-fluoro-3-[2-(H-triazol-4-yl)ethyl]benzoyl]-2,7-dimethyl-5,7-dihydro-4H-pyrazolo[3,4-c]pyridin-3-yl]phenyl]cyclopropyl]methanesulfonamide]
22 | 1.77 | C[C@H]1c2nn(C)c(-c3cc(Cl)cc(C4(NS(C)(=O)=O)CC4)c3)c2CCN1C(=O)c1cc(F)cc(CCc2c[nH]nn2)c1Cl [Example 88, N-[1-[3-chloro-5-[(7S)-6-[2-chloro-5-fluoro-3-[2-(1H-triazol-4-yl)ethyl]benzoyl]-2,7-dimethyl-5,7-dihydro-4H-pyrazolo[3,4-c]pyridin-3-yl]phenyl]cyclopropyl]methanesulfonamide]
23 | 26.8 | C[C@@H]1c2nn(C)c(-c3cc(Cl)cc(C4(NS(C)(=O)=O)CC4)c3)c2CCN1C(=O)c1cc(F)cc(CCc2c[nH]nn2)c1Cl [Example 89, N-[1-[3-chloro-5-[(7R)-6-[2-chloro-5-fluoro-3-[2-(1H-triazol-4-yl)ethyl]benzoyl]-2,7-dimethyl-5,7-dihydro-4H-pyrazolo[3,4-c]pyridin-3-yl]phenyl]cyclopropyl]methanesulfonamide]
24 | 24.6 | C[C@H]1c2nn(C)c(-c3cc(F)c(F)c(F)c3F)c2CCN1C(=O)c1cc(F)cc(-c2c[nH]c(C#N)c2)c1Cl [Example 90, 4-[2-chloro-3-[(7S)-2,7-dimethyl-3-(2,3,4,5-tetrafluorophenyl)-5,7-dihydro-4H-pyrazolo[3,4-c]pyridine-6-carbonyl]-5-fluoro-phenyl]-1H-pyrrole-2-carbonitrile]
